Laboratory results published in paper doi:10.1101/2025.02.26.640323, “Aggregation-Dependent Epitope Sequence and Modification Fingerprints of Anti-Aβ Antibodies” (bioRxiv, 2025).
“Also recorded” adds a separate entry of the source.

Columns and labels:
[1] = tested on: amyloid precursor protein (APP770) residues 649–722; assay: Peptide microarray epitope pre-screening (overlapping 15-mers); assay type: binding, human; conditions: 0.5–1 μg/mL antibody
Protocol: Information regarding binding epitopes and /or immunogens for most of the tested Aβ-Abs has been published and is summarized in Table 1. However, the binding epitope information was derived from varying methodologies. To provide an initial side-by-side comparison we pre-screened all of the listed Aβ-Abs in array format using copies of peptide libraries and standard antibody concentrations of 0.5–1 μg/mL (Figure 1a). The library comprised the amyloid precursor protein (APP770) residues 649–722, corresponding to the canonical Aβ1–42 amino acid sequence with additional 23 amino terminal and 9 carboxy terminal residues. […] For optimal signal to noise ratios and ideal selectivity profiles on the microarrays, the Aβ-Ab concentrations were adjusted for 3D6, 82E1, 11H3, 80C2 and 7H3D6 (Figure 1 – figure- supplement 1) and (Appendix 1–7). […] Specifically, Donanemabbs, 2–48 and Aβ-pE3 were raised against AβpE3-x (Table 1) and were expected to show preference for Aβ peptides starting with a pE(3).
Figure 1. Microarray workflow and Aβ-Ab epitope pre-screening. (a) Schematic of the microarray workflow. The library comprised the amyloid precursor protein (APP) residues 649–722 (APP770 numbering), corresponding to Aβ residues −23 to 51, as a library of 15-mer peptides overlapping by 14AAs, copied in dozens, and probed for Aβ-Abs binding followed by analysis in MARTin. (b) The epitope screening binding data are summarized as a heatmap. Blue and red shades indicate the relative binding strength of the related arrayed peptides to the left and cognate Aβ-Ab on top. The blue – red scale is visualizing the normalized binding intensity for each antibody individually. The applied antibody concentrations ranged between 0.5–1 μg/mL.
The μSPOT assay was performed as previously described. […] Peptide arrays were synthesized using MultiPep RSi robot (CEM GmbH, Kamp-Lintford, Germany) on cellulose discs containing Fmoc-β-Ala linkers. Natural amino acid building blocks were purchased from IRIS (IRIS Biotech GmbH, Marktredwitz, Germany). Special building blocks employed in this study such as isomers, stereoisomers, phosphorylation and pyroglutamination […] modifications are listed here: Fmoc-L-Ser(PO(OBzl)OH)-OH (Iris – FAA1423), L-Pyroglutamic acid pentachlorophenyl ester (Novabiochem - 8.54203), Fmoc-L-Asp-OtBu (Iris – FAA1356), Fmoc-D-Asp-OtBu (Carbosolutions – CC05095) and Fmoc-D-Asp(tBu)-OH (Iris – FAA1309). Synthesis was carried out by deprotecting the Fmoc-group using 20% piperidine in dimethylformamide (DMF). Peptide chains were elongated using a coupling solution consisting of amino acids (0.5M) with oxyma (1M) and DIC (1M) in DMF (1:1:1). Coupling steps were carried out 3 times (30min), followed by capping (4% acetic anhydride in DMF). Discs were transferred into 96 deep-well plates for the work-up.

[2] = tested on: Aβ vascular and parenchymal deposits in AD brain sections; assay: Immunohistochemistry on AD brain tissue with antibody pre-adsorption; set-up: species or system human; conditions: 1 μg Donanemabbs with 2.5 μg peptide; human AD brain
Protocol: Immunohistochemistry was performed on 4-μm paraffin sections. In brief, brain sections were deparaffinized in Roticlear (Carl Roth, Karlsruhe, Germany) and rehydrated in a descending series of ethanol. Activity of endogenous peroxidases was blocked by incubation in 0.3% H2O2 in PBS for 30 min. […] Antibodies and peptides were incubated on a rotator for 3 h at room temperature and reaction tubes were centrifuged at 13000 rpm for 5 min at the end of the incubation period. Control conditions included antibodies in 0.01 M PBS including 10% FCS without synthetic peptides. Adjacent paraffin-embedded sections from a human AD case were incubated overnight with the supernatants and sections were washed with 0.01 M PBS including 0.1 % Tergitol. For detection, biotinylated anti-human antibodies (6 μg/ml, Jackson ImmunoResearch, West Grove, Pennsylvania, USA #109-065-003) were used and staining was visualized with the ABC method with a Vectastain kit (Vector Laboratories, Newark, California, USA), diaminobenzidine as a chromogen and counterstaining with hematoxylin.

[3] = tested on: mixture of ten synthetic Aβ peptides; assay: IP-MS from mixture of ten synthetic Aβ peptides; assay type: binding; conditions: TOPAC matrix, 10ng/mL each peptide

Substance: Donanemabbs: humanized monoclonal, biosimilar of Donanemab, Proteogenix (#PX-TA1549)
- Array: epitope identified in this study on microarrays ([1]; Aβ residue numbers, 15-mer peptides overlapping by 14AAs on cellulose conjugates, chemiluminescence): 3–10
- binding in epitope pre-screening ([1]; unmodified Aβ-related 15-mers, generic pre-screening conditions): detected Aβ(3-x) starting with non-cyclized Glu (3), Aβ(−3-x) as well as several other N-terminally elongated Aβ-related peptides and Aβ1-x; also recorded: clear signals with AβpE3-x and several other Aβ related peptides starting N-terminally of Glu(3), including Aβ1-x
- IHC immunoreactivity after pre-adsorption with Aβ1–40 [2]: not suppressed
- IHC immunoreactivity after pre-adsorption with Aβ3–40 [2]: not suppressed
- IHC immunoreactivity after pre-adsorption with AβpE3–40 [2]: efficiently suppressed; also recorded: effectively attenuated
- IP-MS signal of AβpE3–40 [3]: highly preferential binding
